# Data published in patent US5985926A, “Method for inhibiting intracellular viral replication” (Cell Therapeutics, Inc., priority 1997, dated 1999).
# Key:
# NFκB = NFκB activation in 293tat cells, electrophoretic mobility shift assay; assay type: cell-based, human; details: CT2576 12 μM, TNF-α 40 ng/ml or IL-1β 1 ng/ml
# Procedure: Nuclear extracts (A) from 293tat cells were tested by EMSA for activation of NFκB. A radiolabeled 40-mer covering the NFκB sequences in the HIV promoter was used as a probe. Cells were incubated with CT2576 at 12 μM, human TNF-α at 40 ng/ml or IL-1β at 1 ng/ml, or pre-incubated for 30 min. with CT2576 and then stimulated with TNF-α or IL-1β for 18 hr prior to making extracts. RNA was extracted from 293tat cells (B) after treatment with CT2576 without or with TNF-α or IL-1β for 18 hr. Northern blots analysis were performed using probes derived from AP cDNA and G3PDH cDNA as a control for normalization of mRNA level. AP activity was determined in cell supernatants from the various samples.
# NFκB binding activity in nuclear extracts (Dignam et al., Nucleic Acids Res. 11:1475-1489, 1983) of cells was measured by electrophoretic mobility-shift assay (EMSA) (Carthew et al., Cell 43:439-448, 1985) using 5'-labeled double-stranded synthetic DNA with two NF-κB motifs. Northern blot analysis was performed with total RNA run on 1% agarose/formaldehyde gel and probed with ^32 P-labeled cDNA of AP and glyceraldehyde-3-phosphate dehydrogenase (G3PDH).
# [1] = test system: HIV-LTR promoter (tat transactivation) in 293-EBNA cells; test: AP reporter gene expression from HIV-LTR promoter with tat expression vector, 293-EBNA cells; assay type: cell-based, HIV; human cells; details: 293-EBNA cells, HIV promoter, in words
# Summary of the method: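 293-EBNA cells were transiently co-transfected with an HIV-LTR-driven secreted placental alkaline phosphatase reporter and a tat(1–72) expression plasmid. At 24 h, the medium was switched to serum-free AIM V before compounds were added at various concentrations. Secreted AP activity was read colorimetrically at 405 nm 19–24 h later.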
Compound,activation of NFκB (NFκB),inhibition of AP expression (HIV-LTR promoter) [1]
"CCCCCCCCNCC(O)CCCCCCCCCn1c(=O)c2c(ncn2C)n(C)c1=O (centres unmarked) [CT2576, 1-(11-octylamino-10-hydroxyundecyl)-3,7-dimethylxanthine]",did not inhibit TNF-α dependent activation of NFκB,–
"CCCCCCCCNCC(O)CCCCCCCCCN1C(=O)CCN(C)C1=O (centres unmarked) [CT1829, 3-(11-octylamino-10-hydroxyundecyl)-1-methyldihydrouracil]",–,inhibit HIV promoter driven expression
